# Assay results as given in US20240174639A1, “PYRIDINE DERIVATIVES USEFUL AS HCN2 MODULATORS” (King's College London, priority 2021, published 2024).
# Where a name gives a salt, the structure may show the parent alone.
# Experiments:
# HCN2 [1] = molecular target: T1, HCN2 (Homo sapiens, UniProt Q9UL51); assay: HCN2 assay using the Sophion Qube (Example 50B); format: cell-based; details: Sophion Qube protocol (SQ)
# T1 sequence (Q9UL51 1-889): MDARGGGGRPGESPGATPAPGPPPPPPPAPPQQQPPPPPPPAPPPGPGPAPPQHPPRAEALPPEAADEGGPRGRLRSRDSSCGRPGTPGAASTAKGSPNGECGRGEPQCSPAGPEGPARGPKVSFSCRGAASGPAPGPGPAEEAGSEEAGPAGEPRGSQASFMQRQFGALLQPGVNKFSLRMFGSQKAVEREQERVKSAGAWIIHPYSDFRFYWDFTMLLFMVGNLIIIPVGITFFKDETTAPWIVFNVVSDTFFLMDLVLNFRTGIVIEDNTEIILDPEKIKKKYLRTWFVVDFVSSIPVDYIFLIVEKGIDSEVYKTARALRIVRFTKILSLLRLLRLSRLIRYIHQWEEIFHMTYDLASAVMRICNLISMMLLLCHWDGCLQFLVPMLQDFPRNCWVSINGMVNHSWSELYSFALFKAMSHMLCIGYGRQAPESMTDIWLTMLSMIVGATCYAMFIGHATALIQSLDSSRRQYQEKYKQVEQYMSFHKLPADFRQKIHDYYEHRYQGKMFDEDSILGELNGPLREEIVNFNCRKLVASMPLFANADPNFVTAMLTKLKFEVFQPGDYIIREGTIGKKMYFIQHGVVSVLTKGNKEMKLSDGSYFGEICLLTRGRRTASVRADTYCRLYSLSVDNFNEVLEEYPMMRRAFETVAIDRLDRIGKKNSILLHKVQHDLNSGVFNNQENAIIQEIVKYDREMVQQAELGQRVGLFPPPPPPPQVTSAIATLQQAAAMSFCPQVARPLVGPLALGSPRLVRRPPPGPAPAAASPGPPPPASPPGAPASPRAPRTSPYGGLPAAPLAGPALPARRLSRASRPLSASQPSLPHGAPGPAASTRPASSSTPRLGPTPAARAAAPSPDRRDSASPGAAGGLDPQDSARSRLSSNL
# Procedure: Solutions for recording HCN currents were:
# For HCN1 and HCN2 the cells were held at −30 mV and then stepped to −110 mV for 2 seconds before stepping back to −30 mV, this represents 1 experimental sweep. This voltage protocol was applied every 20 seconds for the duration of the experiment. Both the vehicle (0.3% DMSO) and full block (3 mM CsCl) addition periods were applied for 10 experimental sweeps each. The compound addition period was applied for 30 sweeps.
# The currents evoked by the step to −110 mV (HCN1 and HCN2) or −130 mV (HCN4) were measured for the analysis of the percentage inhibition by test compounds. The current amplitudes were measured by subtracting metric A from metric B (see FIG. 2) with inhibition calculated by normalising to the vehicle addition (0.3% DMSO) and full inhibition by 3 mM CsCl in the same well.
# In total, compound was applied to the well for 600 seconds.
# HCN4 [2] = molecular target: T2, HCN4 (Homo sapiens, UniProt Q9Y3Q4); assay: HCN4 assay using the Sophion Qube (Example 50B); format: cell-based; details: Sophion Qube protocol (SQ)
# T2 sequence (Q9Y3Q4 1-1203): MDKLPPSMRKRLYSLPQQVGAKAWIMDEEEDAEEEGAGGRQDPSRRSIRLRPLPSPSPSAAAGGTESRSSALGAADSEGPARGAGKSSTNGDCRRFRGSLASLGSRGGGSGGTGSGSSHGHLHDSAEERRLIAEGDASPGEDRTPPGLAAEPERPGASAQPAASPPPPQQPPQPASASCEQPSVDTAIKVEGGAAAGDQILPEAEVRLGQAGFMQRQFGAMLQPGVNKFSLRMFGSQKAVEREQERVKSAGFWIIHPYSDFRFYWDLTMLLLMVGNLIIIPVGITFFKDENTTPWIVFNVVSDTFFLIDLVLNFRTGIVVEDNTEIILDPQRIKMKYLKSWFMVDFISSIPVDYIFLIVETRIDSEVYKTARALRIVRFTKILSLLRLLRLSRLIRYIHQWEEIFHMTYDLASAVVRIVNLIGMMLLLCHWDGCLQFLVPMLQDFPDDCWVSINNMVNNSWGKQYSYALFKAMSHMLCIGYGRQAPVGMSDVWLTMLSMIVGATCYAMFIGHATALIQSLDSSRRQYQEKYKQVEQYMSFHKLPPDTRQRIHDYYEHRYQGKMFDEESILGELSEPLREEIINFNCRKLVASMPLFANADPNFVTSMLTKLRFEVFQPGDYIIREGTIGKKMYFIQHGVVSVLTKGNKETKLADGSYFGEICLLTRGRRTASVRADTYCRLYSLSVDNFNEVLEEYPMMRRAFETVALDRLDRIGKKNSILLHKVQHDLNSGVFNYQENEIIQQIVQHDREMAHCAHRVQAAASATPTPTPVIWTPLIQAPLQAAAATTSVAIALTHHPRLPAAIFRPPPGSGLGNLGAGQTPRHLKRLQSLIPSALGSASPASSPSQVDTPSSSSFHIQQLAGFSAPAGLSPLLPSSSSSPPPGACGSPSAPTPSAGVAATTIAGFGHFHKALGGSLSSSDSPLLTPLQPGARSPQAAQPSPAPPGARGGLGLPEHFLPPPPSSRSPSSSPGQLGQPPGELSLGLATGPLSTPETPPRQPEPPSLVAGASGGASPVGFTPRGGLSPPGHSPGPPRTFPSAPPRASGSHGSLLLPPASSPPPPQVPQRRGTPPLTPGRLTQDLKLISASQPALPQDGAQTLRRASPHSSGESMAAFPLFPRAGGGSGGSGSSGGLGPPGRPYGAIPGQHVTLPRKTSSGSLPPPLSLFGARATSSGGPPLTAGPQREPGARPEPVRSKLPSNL
# Procedure: Solutions for recording HCN currents were: [table] For HCN4, the cells were held at −30 mV and then stepped to −130 mV for 4 seconds before stepping back to −30 mV, this represents 1 experimental sweep. This voltage protocol was applied every 20 seconds for the duration of the experiment. Both the vehicle (0.3% DMSO) and full block (3 mM CsCl) addition periods were applied for 10 experimental sweeps each. The compound addition period was applied for 30 sweeps. The currents evoked by the step to −110 mV (HCN1 and HCN2) or −130 mV (HCN4) were measured for the analysis of the percentage inhibition by test compounds. The current amplitudes were measured by subtracting metric A from metric B (see FIG. 2) with inhibition calculated by normalising to the vehicle addition (0.3% DMSO) and full inhibition by 3 mM CsCl in the same well. […] In total, compound was applied to the well for 600 seconds.
# Black6 strain mice = assay: Bradycardia testing, heart rate by MouseOx pulse oximeter (Example 58); format: in vivo; details: awake Black6 mice
# Procedure: Test compounds were administered i.p. to awake, behaving, Black6 strain mice together with a vehicle only control arm. Heart rate in the mice were measured with MouseOx pulse oximeter.
# The compound of Example 2 was administered to awake, behaving, Black6 strain mice at doses ranging from 0.05 mg/kg to 2 mg/kg. The effect of the compound of Example 2 on heart beat is shown in FIG. 11 compared to ivabradine administered at a dose of 5 mg/kg i.p, and a vehicle control.
# WT Black6 strain mice = assay: Mouse neuropathic pain model (partial sciatic nerve ligation), von Frey filament (Example 57); format: in vivo; details: day 5 after PSNL
# Procedure: The compounds of Example 2 and Example 4 were tested in a mouse neuropathic pain model using WT Black6 strain mice. The model used was analogous to the model described in Seltzer Z, Dubner R, & Shir Y (1990), A novel behavioural model of neuropathic pain disorders produced in rats by partial sciatic nerve injury, Pain 43: 205-218). […] Sci Transl Med 9: eaam6072.
# The test compounds were administered i.p. to the mice on day 5 following partial sciatic nerve ligation surgery, average data from 3-4 mice. The mechanical pain threshold was measured by manual von Frey filament applied to hind paw on the operated side, using the “up-down” method. The test compounds were compared to ivabradine at 5 mg/kg i.p. and i.p. injection of vehicle.
# HCN2 [3] = molecular target: T1, HCN2; assay: HCN2 assay using PatchXpress 7000A (Example 50A); format: cell-based; details: for IC50: PatchXpress protocol (PX); for selective for HCN2 over HCN4: PatchXpress protocol (PX) assay
# Description: (§1) Solutions for recording HON currents were:
# For HCN1 and HCN2, the pulse protocol involved stepping from a holding potential of −30 mV to −110 mV (see FIG. 1A) for 2 seconds to evoke the current. The membrane voltage was then stepped back to −30 mV for a further 8 seconds. This sequence was evoked repeatedly every 10 seconds throughout the experiment, starting prior to drug (Control A) and during cumulative additions of 5 increasing compound concentrations, then finally a 100% inhibiting concentration of cesium chloride (CsCl, 3 mM).
# (§2) The peak inward current measured at the end of the pulse to −110 mV (HCN1 and HCN2) or −130 mV (HCN4) was measured and any leak current subtracted to calculate the HCN current. The HCN current amplitude was measured after each control or compound addition and normalized to the control amplitude (Control A).
# (§3) All experiments were performed at room temperature (approximately 22° C.).
# (§4) Each test compound concentration was applied to the cell for seven (7) minutes, at which point the next cumulative concentration was applied. 3 mM CsCl was applied to each cell for 2 minutes at the end of each experiment (Control B) to determine 100% inhibition level of the HCN current.
# HCN4 [4] = molecular target: T2, HCN4; assay: HCN4 assay using PatchXpress 7000A (Example 50A); format: cell-based; details: PatchXpress protocol (PX)
# Procedure: as §1
# For HCN4, the pulse protocol involved stepping from a holding potential of −30 mV to −130 mV (see FIG. 1B) for 4 seconds to evoke the current.
# as §2, §3, §4
Compound,IC50 (HCN2 [1]) [nM],IC50 (HCN4 [2]) [µM],other results
"N[C@@H](Cc1ccccn1)c1ncccc1-n1ncc2ccccc21 [Example 4, (S)-1-[3-(1H-indazole-1-yl)pyridine-2-yl]-2-(pyridine-2-yl)ethan-1-amine hydrochloride]",–,–,bradycardia (heart rate) (Black6 strain mice; 2 mg/kg i.p.): minimal bradycardia; mechanical analgesia (von Frey pain threshold) (WT Black6 strain mice; 2 mg/kg i.p.): maximal analgesia; mechanical analgesia (von Frey pain threshold) (WT Black6 strain mice; 10 mg/kg i.p.): maximal analgesia; IC50 (HCN2 [3]): 1600 nM; selective for HCN2 over HCN4 (HCN2 [3]): more than 19 times; IC50 (HCN4 [4]): > 30000 nM
"Cc1cccnc1C[C@H](N)c1ncccc1-n1ncc2cc(Br)ccc21 [Example 30, (S)-1-[3-(5-Bromo-1H-indazole-1-yl)pyridine-2-yl]-2-(3-methylpyr-idine-2-yl)ethan-1-amine hydrochloride]",900,22.5,–
"CS(=O)(=O)c1ccc(F)c(C[C@H](N)c2ncccc2-n2ncc3cc(Cl)ccc32)n1 [Example 41, (S)-1-[3-(5-Chloro-1H-indazole-1-yl)-pyridine-2-yl]-2-(3-fluoro-6-methylsulfon-ylpyridine-2-yl)ethan-1-amine hydrochloride]",3900,> 30,–
"CS(=O)(=O)c1ccc(F)c(C[C@H](N)c2ncccc2-n2ncc3cc(Br)ccc32)n1 [Example 48, (S)-1-[3-(5-Bromo-1H-indazole-1-yl)pyridine-2-yl]-2-(3-fluoro-6-methylsulfonylpyr-idine-2-yl)ethan-1-amine hydrochloride]",2100,11.1,–
"Cc1ccc(C#N)nc1C[C@H](N)c1ncccc1-n1ncc2ccccc21 [Example 2, (S)-6-{2-[3-(1H-indazol-1-yl)pyridine-2-yl]-2-aminoethyl}-5-methylpyridin-2-carbonitrile hydrochloride]",–,–,bradycardia (heart rate) (Black6 strain mice; 0.2 mg/kg i.p.): minimal bradycardia; mechanical analgesia (von Frey pain threshold) (WT Black6 strain mice; 0.2 mg/kg i.p.): full analgesia; IC50 (HCN2 [3]): 30 nM; selective for HCN2 over HCN4 (HCN2 [3]): 21 times; IC50 (HCN4 [4]): 500 nM

# Further lines, with some results ahead:
IC50 (HCN2 [1]) [nM],IC50 (HCN4 [2]) [µM],Compound,other results
310,3.7,"Cc1ccc2c(cnn2-c2cccnc2[C@@H](N)Cc2nc(C#N)ccc2F)c1 [Example 39, (S)-6-{2-Amino-2-[3-(5-methyl-1H-indazol-1-yl)pyridine-2-yl]-ethyl}-5-fluoropyr-idine-2-carbonitrile hydrochloride]",–
790,> 30,"N#Cc1ccc(F)c(C[C@H](N)c2ncccc2-n2ncc3cc(F)ccc32)n1 [Example 38, (S)-6-{2-Amino-2-[3-(5-fluoro-1H-indazol-1-yl)pyridine-2-yl]ethyl}-5-fluoropyridine-2-carbonitrile]",–
460,4.3,"Cc1ccc(C#N)nc1C[C@H](N)c1ncccc1-n1ncc2cc(Cl)ccc21 [Example 35, (S)-6-{2-Amino-2-[3-(5-chloro-1H-indazol-1-yl)pyridine-2-yl]-ethyl}-5-methylpyr-idine-2-carbonitrile]",–
770,4.7,"Cc1ccc(C#N)nc1C[C@H](N)c1ncccc1-n1ncc2cc(Br)ccc21 [Example 36, hydrochloride]",–
630,10,Cc1ccc(C#N)nc1C[C@H](N)c1ncccc1-n1ncc2cc(F)ccc21 [Example 47],–
